This passage reports IC50 results from patent US5739146A, “Substituted cyclo or bicycloalkylamides of (8β)-6-(substituted) ergolines” (Eli Lilly and Company, priority 1995, dated 1998).

For orientation: IC50 means the concentration at which inhibition is half-maximal.

Structures can show the parent of a compound that is named as a salt. Where two headings read alike, the source gives them in different places. A value given as a limit tells only on which side of the number the result lay.

Experiment [1] addresses T1, 5HT1A receptor (Rattus norvegicus, UniProt P19327).
T1 construct: membranes isolated from bovine choroid plexus (for 5HT1.sbsb.c) or rat brain; from tissue
T1 sequence (P19327 1-422): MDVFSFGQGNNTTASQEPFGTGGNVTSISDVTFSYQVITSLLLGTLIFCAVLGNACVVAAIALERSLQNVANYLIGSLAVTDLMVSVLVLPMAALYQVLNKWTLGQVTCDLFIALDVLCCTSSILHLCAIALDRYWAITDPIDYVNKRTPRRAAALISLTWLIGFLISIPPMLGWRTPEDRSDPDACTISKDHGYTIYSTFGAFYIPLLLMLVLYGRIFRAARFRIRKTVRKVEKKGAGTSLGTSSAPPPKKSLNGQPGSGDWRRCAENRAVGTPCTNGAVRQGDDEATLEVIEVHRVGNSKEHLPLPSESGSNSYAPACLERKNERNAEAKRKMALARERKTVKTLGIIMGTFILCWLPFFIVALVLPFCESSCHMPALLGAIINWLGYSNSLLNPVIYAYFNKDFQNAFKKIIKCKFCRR
In words: Inhibition of 3H-8-hydroxy-2-(di-n-propylamino)tetralin binding to 5HT1A receptor. More on the design: species or system male Sprague-Dawley rats. The protocol:
(§1) Radioactivity was measured with a liquid scintillation spectrometer.

The target in experiment [2] is T2, 5HT1B receptor (Rattus norvegicus, UniProt P28564).
T2 construct: membranes isolated from bovine choroid plexus (for 5HT1.sbsb.c) or rat brain; from tissue
In words: Inhibition of 3H-serotonin binding to 5HT1B receptor. More on the design: species or system male Sprague-Dawley rats. The protocol:
as §1

Experiment [3] deals with T3, 5HT1C receptor (Bos taurus, UniProt A0AAA9SBU1).
T3 sequence (A0AAA9SBU1 33-457): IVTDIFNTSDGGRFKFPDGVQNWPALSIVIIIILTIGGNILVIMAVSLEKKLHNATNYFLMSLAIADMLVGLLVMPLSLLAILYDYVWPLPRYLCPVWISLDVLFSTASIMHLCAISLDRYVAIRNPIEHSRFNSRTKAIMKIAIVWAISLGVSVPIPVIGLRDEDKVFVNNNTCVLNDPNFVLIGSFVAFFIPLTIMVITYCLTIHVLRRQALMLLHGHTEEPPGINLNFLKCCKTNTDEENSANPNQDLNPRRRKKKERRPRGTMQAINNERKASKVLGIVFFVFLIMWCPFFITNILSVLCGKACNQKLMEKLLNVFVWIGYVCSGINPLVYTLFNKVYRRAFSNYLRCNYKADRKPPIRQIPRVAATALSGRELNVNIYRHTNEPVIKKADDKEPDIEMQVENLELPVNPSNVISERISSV
In words: Inhibition of 3H-mesulergine binding to 5HT1C receptor. The protocol:
as §1

The target in experiment [4] is 5HT1D receptor. The experiment is described as follows: Inhibition of 3H-serotonin binding to 5HT1D receptor. More on the design: species or system male Sprague-Dawley rats. Particulars: rat brain membranes, 25 °C, 30 min, pH 7.4, read-out: Inhibition of Radioligand Binding to 5HT Receptor 1D (IC50). The protocol:
as §1

Experiment [5] deals with 5HT2 receptor (Rattus norvegicus, UniProt P14842). In words: biochemical. The protocol: Binding was terminated by filtering samples under reduced pressure through glass fiber (GFB) filters. […] Radioactivity was measured with a liquid scintillation spectrometer.
Sequence of 5HT2 receptor (P14842 whole entry): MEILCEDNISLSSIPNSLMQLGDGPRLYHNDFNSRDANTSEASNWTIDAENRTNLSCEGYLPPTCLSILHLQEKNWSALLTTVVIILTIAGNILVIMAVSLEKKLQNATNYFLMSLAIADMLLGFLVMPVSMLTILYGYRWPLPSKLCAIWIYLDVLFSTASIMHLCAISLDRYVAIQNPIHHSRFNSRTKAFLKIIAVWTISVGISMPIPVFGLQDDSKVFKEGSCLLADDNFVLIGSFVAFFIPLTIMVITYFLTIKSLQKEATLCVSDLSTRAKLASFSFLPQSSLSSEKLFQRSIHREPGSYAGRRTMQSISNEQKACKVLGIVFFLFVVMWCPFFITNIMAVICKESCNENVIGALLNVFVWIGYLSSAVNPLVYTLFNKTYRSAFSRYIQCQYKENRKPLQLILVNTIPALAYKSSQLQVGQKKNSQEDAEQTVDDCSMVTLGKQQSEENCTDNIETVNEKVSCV

T2 sequence (P28564 whole entry): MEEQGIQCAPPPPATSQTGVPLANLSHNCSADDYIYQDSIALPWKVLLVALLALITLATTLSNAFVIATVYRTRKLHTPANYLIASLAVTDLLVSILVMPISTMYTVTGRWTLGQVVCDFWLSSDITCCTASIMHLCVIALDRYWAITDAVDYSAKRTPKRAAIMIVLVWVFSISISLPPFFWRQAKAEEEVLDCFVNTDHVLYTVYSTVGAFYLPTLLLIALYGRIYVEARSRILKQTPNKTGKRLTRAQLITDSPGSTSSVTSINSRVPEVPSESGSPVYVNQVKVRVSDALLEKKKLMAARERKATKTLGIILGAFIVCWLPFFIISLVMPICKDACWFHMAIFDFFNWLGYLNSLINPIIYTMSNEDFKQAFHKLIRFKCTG

For the compound `CC(=O)N[C@H]1CC[C@H](NC(=O)[C@@H]2C[C@@H]3c4cccc5c4c(cn5C(C)C)C[C@H]3N(C)C2)CC1` (relative stereo) [Example 1, (8β)-N-(trans-4-acetamidocyclohexyl)-1-isopropyl-6-methylergoline-8-carboxamide], the half-inhibitory concentration (IC50) in experiment [1] (rat brain membranes, 3H-8-hydroxy-2-(di-n-propylamino)tetralin, 25 °C, 30 min, pH 7.4, read-out: Inhibition of Radioligand Binding to 5HT Receptor 1A (IC50)) was 2310 nM; in experiment [2] (rat brain membranes, 3H-serotonin, 25 °C, 30 min, pH 7.4, read-out: Inhibition of Radioligand Binding to 5HT Receptor 1B (IC50)) it was > 1000 nM; in experiment [3] (read-out: Inhibition of Radioligand Binding to 5HT Receptor 1C (IC50); bovine choroid plexus membranes; 2 nM 3H-mesulergine; 25 °C, 30 min, pH 7.4), 18 nM; in experiment [4], 198 nM; in experiment [5], 31 nM.

Regarding `CC(C)n1cc2c3c(cccc31)[C@H]1C[C@@H](C(=O)N[C@H]3CC[C@H](NS(C)(=O)=O)CC3)CN(C)[C@@H]1C2` (relative stereo) [Example 2, (8β)-N-(trans-4-methylsulfonamidocyclohexyl)-1-isopropyl-6-methylergoline-8-carboxamide maleate], the IC50 was 2650 nM in experiment [1]; 489 nM in experiment [2]; 22 nM in experiment [3] (bovine choroid plexus membranes; 2 nM 3H-mesulergine; 25 °C, 30 min, pH 7.4; read-out: Inhibition of Radioligand Binding to 5HT Receptor 1C (IC50)); 276 nM in experiment [4]; 23 nM in experiment [5].
